Among the test systems are Staphylococcus aureus; Pseudomonas aeruginosa; Salmonella typhimurium; Escherichia coli UB1005; Escherichia coli 55B5; Vibrio alginolyticus; Vibrio parahaemolyticus; Streptococcus iniae; Lactococcus garvieae; Escherichia coli; Vibrio harveyi; Bacillus cereus C737.
Common to all, as to assay: ≥ marks a high value that may be exact or a test limit, other limits are often not marked, values filed in µg/mL are converted to µM
The subject of assay [1] is Streptococcus equinus BCRC 14729.
Assay [2] relates to Vibrio parahaemolyticus BCRC 10806.
Assay [3] concerns Escherichia coli BCRC 10675.
The subject of assay [4] is Yersinia enterocolitica BCRC 13999.
For assay [5], the system named is Klebsiella oxytoca BCRC 13985.
Assay [6] relates to Klebsiella aerogenes BCRC 10370.
In assay [7] the test system is Listeria monocytogenes BCRC 14845.
For assay [8], the system named is Vibrio alginolyticus BCRC 12829.
Assay [9] concerns Staphylococcus aureus BCRC 10780.
In assay [10] the test system is Staphylococcus xylosus BCRC 12930.
Assay [11] relates to Enterobacter cloacae BCRC 10401.
Assay [12] deals with Pseudomonas aeruginosa BCRC 10944.
The subject of assay [13] is Vibrio anguillarum serotype O1.
Assay [14] concerns Staphylococcus aureus BCRC 10781.
The test system of assay [15] is Pseudomonas aeruginosa PAO1.
Assay [16] relates to Streptococcus mitis ATCC 903.
Assay [17] deals with Streptococcus sanguinis NY101.
For assay [18], the system named is Streptococcus gordonii Challis DL1.
The test system of assay [19] is Pseudomonas aeruginosa PAK.
Assay [20] concerns Streptococcus mutans UA159.
Assay [21] concerns Lacticaseibacillus casei ATCC 4646.
The subject of assay [22] is Veillonella atypica PK1910.

Data on 6 compounds can be found in DBAASP.

Molecules are shown by their SMILES. Converted amounts (≈) assume the structure as drawn.

As for `CC[C@H](C)[C@H](NC(=O)[C@H](C)N)C(=O)N[C@@H](Cc1cnc[nH]1)C(=O)N[C@@H](CCCCN)C(=O)N[C@@H](CC(C)C)C(=O)N[C@@H](C)C(=O)N[C@@H](Cc1cnc[nH]1)C(=O)N[C@@H](CCCCN)C(=O)N[C@@H](CC(C)C)C(=O)N[C@@H](CC(C)C)C(=O)N[C@@H](CCCCN)C(=O)N[C@@H](CCCCN)C(=O)N[C@@H](CC(C)C)C(=O)N[C@@H](CC(C)C)C(=O)N[C@@H](CCCCN)C(=O)N[C@@H](C)C(=O)N[C@H](C(=O)N[C@@H](CCCCN)C(=O)N[C@@H](CCCCN)C(=O)N[C@@H](CC(C)C)C(=O)N[C@@H](C)C(=O)N[C@@H](CCCCN)C(=O)O)C(C)C` [AIHKLAHKLLKKLLKAVKKLAK], the MIC in the assay with Staphylococcus aureus came to 25 µM (≈ 62.3 µg/mL); against Pseudomonas aeruginosa, 4.5 µM (≈ 11.2 µg/mL); with Salmonella typhimurium, 6 µM (≈ 15 µg/mL); with Escherichia coli UB1005, 2.5 µM (≈ 6.23 µg/mL); against Escherichia coli 55B5 it was 2 µM (≈ 4.99 µg/mL).

With `CC[C@H](C)[C@H](NC(=O)[C@H](C)N)C(=O)N[C@@H](Cc1cnc[nH]1)C(=O)N[C@@H](CCCCN)C(=O)N[C@@H](CC(C)C)C(=O)N[C@@H](C)C(=O)N[C@@H](Cc1cnc[nH]1)C(=O)N[C@@H](CCCCN)C(=O)N[C@@H](CC(C)C)C(=O)N[C@H](C(=O)N[C@@H](CCCCN)C(=O)N[C@@H](CCCCN)C(=O)N[C@H](C(=O)N[C@@H](CC(C)C)C(=O)N[C@@H](CCCN=C(N)N)C(=O)N[C@@H](C)C(=O)N[C@H](C(=O)N[C@@H](CCCCN)C(=O)N[C@@H](CCCCN)C(=O)N[C@@H](CC(C)C)C(=O)N[C@@H](C)C(=O)N[C@@H](CC(N)=O)C(=O)O)C(C)C)[C@@H](C)O)[C@@H](C)O` [AIHKLAHKLTKKTLRAVKKLAN], the MIC in the assay on Pseudomonas aeruginosa came to 12.5 µM (≈ 31 µg/mL); in the assay on Salmonella typhimurium it was 10.5 µM (≈ 26.1 µg/mL); against Escherichia coli UB1005, 12.5 µM (≈ 31 µg/mL); against Escherichia coli 55B5, 10.5 µM (≈ 26.1 µg/mL).

Turning to `CC[C@H](C)[C@H](NC(=O)[C@H](Cc1ccccc1)NC(=O)[C@H](CCCCN)NC(=O)[C@H](CCCCN)NC(=O)[C@H](C)NC(=O)[C@@H](NC(=O)[C@@H](NC(=O)[C@H](C)NC(=O)[C@H](Cc1ccccc1)NC(=O)[C@H](CCCCN)NC(=O)[C@H](CCCCN)NC(=O)[C@H](C)NC(=O)[C@H](C)NC(=O)[C@H](CC(N)=O)NC(=O)[C@H](C)NC(=O)CN)[C@@H](C)O)[C@@H](C)CC)C(=O)N[C@@H](CC(N)=O)C(=O)N[C@@H](Cc1ccc(O)cc1)C(=O)N[C@@H](CC(C)C)C(=O)N[C@@H](Cc1c[nH]c2ccccc12)C(=O)O` [GANAAKKFATIAKKFINYLW], the MIC in assay [1] is at least 56.7 µM; in assay [2] it was 28.4 µM (≈ 64 µg/mL); in the assay on Vibrio alginolyticus it was 3.55 µM (≈ 8 µg/mL); in assay [3], 7.09 µM (≈ 16 µg/mL); in assay [4] it was 28.4 µM (≈ 64 µg/mL); in the assay with Vibrio parahaemolyticus it was 1.77 µM (≈ 4 µg/mL). In addition, the MIC in assay [5] was 14.2 µM (≈ 32 µg/mL); in the assay with Streptococcus iniae, at least 56.7 µM; in assay [6], 3.55 µM (≈ 8 µg/mL); with Lactococcus garvieae, at least 56.7 µM; against Escherichia coli it was 14.2 µM (≈ 32 µg/mL); against Vibrio harveyi it was 3.55 µM (≈ 8 µg/mL). Moreover, the MIC is 3.55 µM (≈ 8 µg/mL) in assay [7]; 28.4 µM (≈ 64 µg/mL) in assay [8]; 7.09 µM (≈ 16 µg/mL) in [9]; 3.55 µM (≈ 8 µg/mL) in assay [10]; 3.55 µM (≈ 8 µg/mL) in [11]; 7.09 µM (≈ 16 µg/mL) in assay [12]. Also, the minimum inhibitory concentration (MIC) in [13] is 3.55 µM (≈ 8 µg/mL); in assay [14] it was 7.09 µM (≈ 16 µg/mL).

`CC[C@H](C)[C@H](NC(=O)[C@H](C)NC(=O)CNC(=O)[C@@H](NC(=O)[C@@H](NC(=O)[C@H](CCCCN)NC(=O)[C@H](CCCCN)NC(=O)[C@@H](NC(=O)[C@@H](NC(=O)[C@H](CC(=O)O)NC(=O)[C@H](Cc1ccccc1)NC(=O)[C@H](CC(C)C)NC(=O)CN)[C@@H](C)CC)C(C)C)C(C)C)C(C)C)C(=O)NCC(=O)N[C@@H](CO)C(=O)N[C@@H](CC(C)C)C(=O)O` [GLFDIVKKVVGAIGSL]: the MIC is over 79.2 µM in assay [15], at least 79.2 µM in the assay with Bacillus cereus C737 and at least 79.2 µM in the assay on Escherichia coli UB1005.

`CC[C@H](C)[C@H](NC(=O)[C@H](Cc1ccccc1)NC(=O)CNC(=O)CNC(=O)[C@H](CO)NC(=O)[C@H](Cc1ccccc1)NC(=O)[C@H](CCC(N)=O)NC(=O)[C@H](CCCCN)NC(=O)[C@H](CC(C)C)NC(=O)[C@H](CC(C)C)NC(=O)[C@H](CCCCN)NC(=O)[C@H](CC(C)C)NC(=O)[C@H](CC(C)C)NC(=O)[C@H](CCC(N)=O)NC(=O)[C@H](CCCCN)NC(=O)[C@H](CC(C)C)NC(=O)[C@H](CC(C)C)NC(=O)[C@H](CCC(N)=O)NC(=O)[C@@H](N)CC(C)C)C(=O)N[C@@H](CCCCN)C(=O)N[C@@H](Cc1cnc[nH]1)C(=O)N[C@@H](Cc1ccccc1)C(=O)N[C@H](C(=O)N[C@@H](Cc1cnc[nH]1)C(=O)N[C@@H](CCCN=C(N)N)C(=O)N[C@@H](Cc1ccccc1)C(N)=O)[C@@H](C)CC` [LQLLKQLLKLLKQFSGGFIKHFIHRF]: the MIC against Staphylococcus aureus was determined as 10.1 µM (≈ 32 µg/mL); in [16] it was 10.1 µM (≈ 32 µg/mL); in assay [17], 5.07 µM (≈ 16 µg/mL); in [18], 5.07 µM (≈ 16 µg/mL); in [19], 10.1 µM (≈ 32 µg/mL); in assay [20] it was 2.54 µM (≈ 8 µg/mL).

Consider `CC(C)C[C@H](NC(=O)[C@H](CC(C)C)NC(=O)[C@H](Cc1cnc[nH]1)NC(=O)[C@H](Cc1cnc[nH]1)NC(=O)[C@H](CC(C)C)NC(=O)[C@H](CCCCN)NC(=O)[C@H](CCCCN)NC(=O)[C@H](CC(C)C)NC(=O)[C@H](CC(C)C)NC(=O)[C@H](CCCN=C(N)N)NC(=O)[C@H](CCCN=C(N)N)NC(=O)[C@H](Cc1c[nH]c2ccccc12)NC(=O)[C@@H](N)CCCN=C(N)N)C(=O)N[C@@H](Cc1cnc[nH]1)C(N)=O` [RWRRLLKKLHHLLH], for which the minimal inhibitory concentration (MIC) was 8.39 µM (≈ 16 µg/mL) in [21]; 8.39 µM (≈ 16 µg/mL) against Staphylococcus aureus; 16.8 µM (≈ 32 µg/mL) in assay [16]; 8.39 µM (≈ 16 µg/mL) in [17]; 8.39 µM (≈ 16 µg/mL) in assay [18]; 4.2 µM (≈ 8 µg/mL) in assay [19]. Besides, the MIC was 2.1 µM (≈ 4 µg/mL) in assay [22] and 4.2 µM (≈ 8 µg/mL) in assay [20].
